Consider 15 compounds from US11613527B2, “Enzyme inhibitors” (KalVista Pharmaceuticals Limited, priority 2019, dated 2023).

Holding throughout (format): biochemical
One experiment addresses Human plasma kallikrein (Homo sapiens (Human), UniProt P03952). Put plainly: Determination of the IC50 for plasma kallikrein (fluorogenic substrate H-DPro-Phe-Arg-AFC). Conditions: class symbols A-D, read-out: IC50 (human PKal). In short, it runs like this:
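IC50 values come from initial rates, monitored as the change in absorbance at 410 nm, of residual enzyme activity. Test compound was present at various concentrations with the fluorogenic substrate H-DPro-Phe-Arg-AFC, and the reaction was run at 25° C.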

The target of a further experiment is Human FXIa (Homo sapiens (Human), UniProt P03951). Put plainly: Determination of the % inhibition for FXIa (fluorogenic substrate Z-Gly-Pro-Arg-AFC; 40 μM or IC50). In short, it runs like this: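 Inhibition measured from initial reaction rate, followed as absorbance change at 410 nm, with substrate Z-Gly-Pro-Arg-AFC at 25 °C. Compound tested at a single 40 μM dose for percent inhibition, or across several concentrations to derive IC50 against human FXIa.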

Another experiment concerns the target Human KLK1 (Homo sapiens (Human), UniProt P06870). Put plainly: Determination of the IC50 for KLK1 (fluorogenic substrate H-DVal-Leu-Arg-AFC). In outline:
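Inhibition read as initial rate via optical absorbance change at 410 nm, giving IC50. Reactions combined human KLK1, the substrate H-DVal-Leu-Arg-AFC and varied compound concentrations at 25° C.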

A value given as a limit tells only on which side of the number the result lay.

As a reminder, the IC50 is the point on the concentration scale where inhibition reaches its midpoint.

Chain of Human FXIa (P03951 388-625): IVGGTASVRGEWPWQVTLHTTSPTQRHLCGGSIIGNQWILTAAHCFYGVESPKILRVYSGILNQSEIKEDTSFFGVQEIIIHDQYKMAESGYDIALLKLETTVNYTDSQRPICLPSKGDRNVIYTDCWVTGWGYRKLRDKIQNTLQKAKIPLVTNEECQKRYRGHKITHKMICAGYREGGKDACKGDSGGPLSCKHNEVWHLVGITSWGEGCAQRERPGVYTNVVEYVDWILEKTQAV
Chain of Human FXIa (P03951 19-387 partner): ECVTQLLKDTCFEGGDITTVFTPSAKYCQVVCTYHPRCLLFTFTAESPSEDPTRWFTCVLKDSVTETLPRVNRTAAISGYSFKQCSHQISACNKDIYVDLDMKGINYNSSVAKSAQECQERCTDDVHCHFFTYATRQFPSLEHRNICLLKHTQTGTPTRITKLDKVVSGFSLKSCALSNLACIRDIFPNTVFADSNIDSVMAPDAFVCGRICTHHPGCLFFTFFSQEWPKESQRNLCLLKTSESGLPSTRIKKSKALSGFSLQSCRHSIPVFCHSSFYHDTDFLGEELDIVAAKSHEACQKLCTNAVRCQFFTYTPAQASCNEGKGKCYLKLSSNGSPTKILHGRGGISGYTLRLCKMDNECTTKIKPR
Chain of Human KLK1 (P06870 25-262): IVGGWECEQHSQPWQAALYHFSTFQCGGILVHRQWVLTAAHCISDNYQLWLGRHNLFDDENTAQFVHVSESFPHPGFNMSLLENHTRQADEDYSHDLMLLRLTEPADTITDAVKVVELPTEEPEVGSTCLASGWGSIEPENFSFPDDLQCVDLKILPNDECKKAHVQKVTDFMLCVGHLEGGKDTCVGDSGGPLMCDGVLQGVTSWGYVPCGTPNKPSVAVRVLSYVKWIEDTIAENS
Chain of Human plasma kallikrein (P03952 391-638): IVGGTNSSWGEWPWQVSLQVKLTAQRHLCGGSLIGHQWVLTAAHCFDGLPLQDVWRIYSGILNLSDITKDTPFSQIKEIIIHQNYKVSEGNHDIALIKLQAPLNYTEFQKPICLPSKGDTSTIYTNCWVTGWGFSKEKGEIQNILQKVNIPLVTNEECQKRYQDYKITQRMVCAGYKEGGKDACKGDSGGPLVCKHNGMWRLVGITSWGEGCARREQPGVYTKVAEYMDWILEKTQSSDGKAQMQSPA
Chain of Human plasma kallikrein (P03952 20-390 partner): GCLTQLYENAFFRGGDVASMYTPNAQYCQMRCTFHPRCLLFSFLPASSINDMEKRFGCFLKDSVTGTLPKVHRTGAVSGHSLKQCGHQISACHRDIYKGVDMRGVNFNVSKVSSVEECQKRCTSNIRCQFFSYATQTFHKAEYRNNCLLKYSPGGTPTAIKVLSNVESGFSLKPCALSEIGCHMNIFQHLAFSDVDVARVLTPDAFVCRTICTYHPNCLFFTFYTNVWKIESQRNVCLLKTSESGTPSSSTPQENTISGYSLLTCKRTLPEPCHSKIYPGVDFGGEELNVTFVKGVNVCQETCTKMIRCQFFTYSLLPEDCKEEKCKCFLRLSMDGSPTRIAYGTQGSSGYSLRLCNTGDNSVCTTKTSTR

For `COCc1nn(Cc2ccc3c(c2)C(F)(F)CN(C)C3)cc1C(=O)NCc1c(-n2cc(C)nn2)ccc(OC)c1F` [Example 105, 1-[(4,4-difluoro-2-methyl-1,3-dihydroisoquinolin-6-yl)methyl]-N-{[2-fluoro-3-methoxy-6-(4-methyl-1,2,3-triazol-1-yl)phenyl]methyl}-3-(methoxymethyl)pyrazole-4-carboxamide], the IC50 on Human plasma kallikrein was less than 0.01 µM; on Human FXIa, 30 µM; against Human KLK1 it was greater than 40 µM.

Regarding `COCc1nn(Cc2ccc3c(c2)CN(C)CC3(F)F)cc1C(=O)NCc1c(-n2cc(C)nn2)ccc(OC)c1F` [Example 106, 1-[(4,4-difluoro-2-methyl-1,3-dihydroisoquinolin-7-yl)methyl]-N-{[2-fluoro-3-methoxy-6-(4-methyl-1,2,3-triazol-1-yl)phenyl]methyl}-3-(methoxymethyl)pyrazole-4-carboxamide], the IC50 at Human plasma kallikrein is less than 0.01 µM; against Human FXIa, 23.1 µM; at Human KLK1 it was greater than 40 µM.

Take `COCc1nn(Cc2ccc3c(c2F)CN(C)CC3)cc1C(=O)NCc1c(-n2cc(C)nn2)ccc(OC)c1F` [Example 107, 1-[(8-fluoro-2-methyl-3,4-dihydro-1H-isoquinolin-7-yl)methyl]-N-{[2-fluoro-3-methoxy-6-(4-methyl-1,2,3-triazol-1-yl)phenyl]methyl}-3-(methoxymethyl)pyrazole-4-carboxamide]: the IC50 at Human plasma kallikrein is less than 0.01 µM; against Human FXIa it was greater than 40 µM; against Human KLK1, greater than 40 µM.

Turning to `COCc1nn(Cc2ccc3c(c2)CN(C)CCO3)cc1C(=O)NCc1c(-n2cc(C)nn2)ccc(OC)c1F` [Example 108, N-{[2-fluoro-3-methoxy-6-(4-methyl-1,2,3-triazol-1-yl)phenyl]methyl}-3-(methoxymethyl)-1-[(4-methyl-3,5-dihydro-2H-1,4-benzoxazepin-7-yl)methyl]pyrazole-4-carboxamide], the IC50 was 0.1 to 1 µM at Human plasma kallikrein, greater than 40 µM against Human FXIa and greater than 40 µM at Human KLK1.

Take `COCc1nn(Cc2nc3c(s2)CN(C)CC3)cc1C(=O)NCc1c(-n2cc(C)nn2)ccc(OC)c1F` [Example 109, N-{[2-fluoro-3-methoxy-6-(4-methyl-1,2,3-triazol-1-yl)phenyl]methyl}-3-(methoxymethyl)-1-({5-methyl-4H,6H,7H-[1,3]thiazolo[5,4-c]pyridin-2-yl}methyl)pyrazole-4-carboxamide]: the IC50 was 0.1 to 1 µM on Human plasma kallikrein, greater than 40 µM at Human FXIa and greater than 40 µM on Human KLK1.

Take `COCc1nn(Cc2ccc3c(c2)CNCCO3)cc1C(=O)NCc1c(-n2cc(C)nn2)ccc(OC)c1F` [Example 110, N-{[2-fluoro-3-methoxy-6-(4-methyl-1,2,3-triazol-1-yl)phenyl]methyl}-3-(methoxymethyl)-1-(2,3,4,5-tetrahydro-1,4-benzoxazepin-7-ylmethyl)pyrazole-4-carboxamide]: the IC50 at Human plasma kallikrein is 0.1 to 1 µM; against Human FXIa it was greater than 40 µM; against Human KLK1, greater than 40 µM.

As for `COCc1nn(Cc2ccc3c(c2F)CCN(C)C3)cc1C(=O)NCc1c(-n2cc(C)nn2)ccc(OC)c1F` [Example 114, 1-[(5-fluoro-2-methyl-3,4-dihydro-1H-isoquinolin-6-yl)methyl]-N-{[2-fluoro-3-methoxy-6-(4-methyl-1,2,3-triazol-1-yl)phenyl]methyl}-3-(methoxymethyl)pyrazole-4-carboxamide], the IC50 at Human plasma kallikrein was 0.01 to 0.03 µM; at Human FXIa, greater than 40 µM; against Human KLK1 it was greater than 40 µM.

Take `COCc1nn(Cc2cnc3c(c2)CCN(CC(F)F)C3)cc1C(=O)NCc1c(-n2cc(C)nn2)ccc(OC)c1F` [Example 115, 1-{[7-(2,2-difluoroethyl)-6,8-dihydro-5H-1,7-naphthyridin-3-yl]methyl}-N-{[2-fluoro-3-methoxy-6-(4-methyl-1,2,3-triazol-1-yl)phenyl]methyl}-3-(methoxymethyl)pyrazole-4-carboxamide]: the IC50 was 0.01 to 0.03 µM at Human plasma kallikrein, greater than 4 µM against Human FXIa and greater than 4 µM on Human KLK1.

As for `COCc1nn(Cc2cc(F)c3c(c2)CCN(C)C3)cc1C(=O)NCc1c(-n2cc(C)nn2)ccc(OC)c1F` [Example 116, 1-[(8-fluoro-2-methyl-3,4-dihydro-1H-isoquinolin-6-yl)methyl]-N-{[2-fluoro-3-methoxy-6-(4-methyl-1,2,3-triazol-1-yl)phenyl]methyl}-3-(methoxymethyl)pyrazole-4-carboxamide], the IC50 on Human plasma kallikrein was less than 0.01 µM; at Human FXIa, greater than 4 µM; against Human KLK1, greater than 4 µM.

On to `COCc1nn(Cc2ccc3c(c2)C2CCCN2CC3)cc1C(=O)NCc1c(-n2cc(C)nn2)ccc(OC)c1F` (stereo not drawn) [Example 120, 1-{1H,2H,3H,5H,6H,10bH-pyrrolo[2,1-a]isoquinolin-9-ylmethyl}-N-{[2-fluoro-3-methoxy-6-(4-methyl-1,2,3-triazol-1-yl)phenyl]methyl}-3-(methoxymethyl)pyrazole-4-carboxamide], for which the figures for the half-maximal inhibitory concentration (IC50) on Human plasma kallikrein, on Human FXIa and against Human KLK1 were less than 0.01 µM, greater than 40 µM and greater than 40 µM, respectively.

As to `COCc1nn(Cc2ccc3c(c2)CCN(C)CC3)cc1C(=O)NCc1c(-n2cc(C)nn2)ccc(OC)c1F` [Example 121, N-{[2-fluoro-3-methoxy-6-(4-methyl-1,2,3-triazol-1-yl)phenyl]methyl}-3-(methoxymethyl)-1-[(3-methyl-1,2,4,5-tetrahydro-3-benzazepin-7-yl)methyl]pyrazole-4-carboxamide], the IC50 is less than 0.01 µM on Human plasma kallikrein, greater than 40 µM against Human FXIa and greater than 40 µM against Human KLK1.

Take `COCc1nn(Cc2ccc3c(c2)C2CCC3N2C(C)C)cc1C(=O)NCc1c(-n2cc(C)nn2)ccc(OC)c1F` (stereo not drawn) [Example 123, N-{[2-fluoro-3-methoxy-6-(4-methyl-1,2,3-triazol-1-yl)phenyl]methyl}-1-({11-isopropyl-11-azatricyclo[6.2.1.0^{2,7}]undeca-2(7),3,5-trien-4-yl}methyl)-3-(methoxymethyl)pyrazole-4-carboxamide]: the IC50 at Human plasma kallikrein is 0.03 to 0.1 µM; against Human FXIa, greater than 40 µM; at Human KLK1, greater than 40 µM.

As to `COCc1nn(Cc2ccc3c(c2)C(C)(C)N(C)C3)cc1C(=O)NCc1c(-n2cc(C)nn2)ccc(OC)c1F` [Example 124, N-{[2-fluoro-3-methoxy-6-(4-methyl-1,2,3-triazol-1-yl)phenyl]methyl}-3-(methoxymethyl)-1-[(2,3,3-trimethyl-1H-isoindol-5-yl)methyl]pyrazole-4-carboxamide], the values for the IC50 on Human plasma kallikrein, against Human FXIa and against Human KLK1 were 0.03 to 0.1 µM, greater than 40 µM and greater than 40 µM, respectively.

On to `COCc1nn(Cc2ccc3c(c2)CN(C)CC3(C)C)cc1C(=O)NCc1c(-n2cc(C)nn2)ccc(OC)c1F` [Example 134, N-{[2-fluoro-3-methoxy-6-(4-methyl-1,2,3-triazol-1-yl)phenyl]methyl}-3-(methoxymethyl)-1-[(2,4,4-trimethyl-1,3-dihydroisoquinolin-7-yl)methyl]pyrazole-4-carboxamide], for which the IC50 at Human plasma kallikrein was 0.01 to 0.03 µM; on Human FXIa, greater than 40 µM; at Human KLK1 it was greater than 40 µM.

With `COCc1nn(Cc2ccc3c(c2)CCN(C)C3=O)cc1C(=O)NCc1c(-n2cc(C)nn2)ccc(OC)c1F` [Example 135, N-{[2-fluoro-3-methoxy-6-(4-methyl-1,2,3-triazol-1-yl)phenyl]methyl}-3-(methoxymethyl)-1-[(2-methyl-1-oxo-3,4-dihydroisoquinolin-6-yl)methyl]pyrazole-4-carboxamide], the IC50 at Human plasma kallikrein was 0.01 to 0.03 µM; at Human FXIa, 16.3 µM; at Human KLK1 it was greater than 40 µM.
